# Where a name gives a salt, the structure may show the parent alone.
# Tests used:
# [1] = test system: SARS-CoV-2 clinical isolate (2019-nCoV/USA-WA1/2020); assay: Anti-viral activity against SARS-CoV-2 in HBEC air-liquid-interface cultures (apical viral titer by TCID50); type: cell-based
# [2] = test system: human bronchial epithelial cells (HBEC)
# [3] = test system: patients with severe COVID-19 pneumonia; assay: Randomized, double-blind, placebo-controlled Phase 2/3 study of opaganib in COVID-19 pneumonia (baseline FiO2 up to 60% subgroup)
compound,measurement,setting,value
"O=C(NCc1ccncc1)C12CC3CC(C1)CC(c1ccc(Cl)cc1)(C3)C2 [opaganib, 3-(4-chlorophenyl)-adamantane-1-carboxylic acid (pyridin-4-ylmethyl) amide, hydrochloride salt]",50% inhibition reached in the concentration range tested,[1]; 0.05 to 11.25 μg/ml,neither 50% inhibition nor 50% cytotoxicity were reached
same,concentration from which complete inhibition of infectious virus production is seen,"[1]; SARS-CoV-2-infected HBEC, 3 days incubation",≥ 1 µg/mL
same,cell viability,[2],remained viable
same,50% cytotoxicity reached in the concentration range tested,[2]; human,neither 50% inhibition nor 50% cytotoxicity were reached
same,overall adverse events vs. placebo group,"[3]; 500 mg Q12 hours, 14 days",balanced
same,patients reaching room air by Day 14 (no supplemental oxygen for at least 24 hours),"[3]; baseline FiO2 up to 60%, 90/117 patients, placebo 85/134 (63.5%)",77%
same,"efficacy benefit in mortality, Sensitivity Analysis","[3]; baseline FiO2 up to 60%, nominal p-value=0.033",64%
same,"mortality (deaths/patients), Sensitivity Analysis","[3]; baseline FiO2 up to 60%, placebo 16/134",5/117
same,efficacy benefit in reaching room air by Day 14,"[3]; baseline FiO2 up to 60%, vs. placebo, nominal p-value=0.033",21%
same,median time to discharge,"[3]; baseline FiO2≤60% (251 patients), placebo 14 days",10 days
same,Time to a score of <=3 on the WHO Ordinal Scale: Kaplan-Meier Median,"[3]; baseline FiO2≤60%, 95% CI (7.00-9.00), placebo 10.00",8.00 days
same,Patients With an Improvement of 2 or More on the WHO Ordinal Scale Compared to Baseline by Day 14,"[3]; baseline FiO2≤60%, N = 117",93 (79.49) n (%)
same,Time to Discharge by day 42: Number of Events,"[3]; baseline FiO2≤60%, N = 117",81 (69.2) n (%)
same,Time to a score of <=3 on the WHO Ordinal Scale: Number of Events,"[3]; baseline FiO2≤60%, N = 117",93 (79.5) n (%)
same,Time to Discharge by day 42: Difference and 95% CI (opaganib vs. placebo),"[3]; baseline FiO2≤60%, p-value 0.0022","−4.48 (−7.34, −1.62) days"
same,"Difference in Rates (Opaganib-Placebo), improvement of 2 or more on the WHO Ordinal Scale by Day 14","[3]; baseline FiO2≤60%, p-value 0.023",13.82%
same,Time to Discharge by day 42: Kaplan-Meier Mean (Restricted Mean Analysis),"[3]; baseline FiO2≤60%, placebo 17.89",13.41 days
same,mortality (deaths/patients),"[3]; mITT with baseline FiO2 up to 60%, through Day 42, placebo 21/134",7/117
same,reduction in mortality,"[3]; mITT with baseline FiO2 up to 60%, vs. placebo, nominal p-value=0.019",62%
